From PubChem BioAssay (NCI)
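Dose response: 5 concentrations. Exposure: 48 h. Format: 96-well plates. Endpoint: linear interpolation; highest concentration if not reached. Here, GI50 denotes the concentration required for 50% inhibition of growth. TGI marks complete inhibition of growth.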

Experiments:
Assay in all cases: inhibition of tumour cell growth, NCI panel, 48 h
HL-60(TB) leukemia = test system: HL-60(TB) leukemia
MDA-MB-435 = test system: MDA-MB-435
RXF 393 renal = test system: RXF 393 renal
SF-539 CNS = test system: SF-539 CNS
SW-620 colon = test system: SW-620 colon
SF-295 CNS = test system: SF-295 CNS
UACC-257 melanoma = test system: UACC-257 melanoma
NCI-H226 lung = test system: NCI-H226 lung
OVCAR-3 ovarian = test system: OVCAR-3 ovarian
NCI/ADR-RES ovarian = test system: NCI/ADR-RES ovarian
HCT-15 colon = test system: HCT-15 colon
EKVX NSCLC = test system: EKVX NSCLC
SK-OV-3 ovarian = test system: SK-OV-3 ovarian
DU-145 prostate = test system: DU-145 prostate
SK-MEL-2 melanoma = test system: SK-MEL-2 melanoma
SF-268 CNS = test system: SF-268 CNS
OVCAR-5 ovarian = test system: OVCAR-5 ovarian
MOLT-4 leukemia = test system: MOLT-4 leukemia
TK-10 renal = test system: TK-10 renal
OVCAR-4 ovarian = test system: OVCAR-4 ovarian
UO-31 renal = test system: UO-31 renal
U251 CNS = test system: U251 CNS
HCT-116 colon = test system: HCT-116 colon
SN12C renal = test system: SN12C renal
OVCAR-8 ovarian = test system: OVCAR-8 ovarian
NCI-H522 lung = test system: NCI-H522 lung
A549 NSCLC = test system: A549 NSCLC
PC-3 prostate = test system: PC-3 prostate
SK-MEL-5 melanoma = test system: SK-MEL-5 melanoma
HCC-2998 colon = test system: HCC-2998 colon
CCRF-CEM leukemia = test system: CCRF-CEM leukemia
MCF7 breast = test system: MCF7 breast
A498 renal = test system: A498 renal
LOX IMVI melanoma = test system: LOX IMVI melanoma
KM12 colon = test system: KM12 colon
HOP-62 NSCLC = test system: HOP-62 NSCLC
ACHN renal = test system: ACHN renal
T-47D breast = test system: T-47D breast
CAKI-1 renal = test system: CAKI-1 renal
NCI-H460 lung = test system: NCI-H460 lung
UACC-62 melanoma = test system: UACC-62 melanoma
SR leukemia = test system: SR leukemia
786-0 renal = test system: 786-0 renal
IGROV1 ovarian = test system: IGROV1 ovarian
RPMI-8226 leukemia = test system: RPMI-8226 leukemia
M14 melanoma = test system: M14 melanoma
SNB-19 CNS = test system: SNB-19 CNS
COLO 205 colon = test system: COLO 205 colon
MDA-MB-231 breast = test system: MDA-MB-231 breast
MALME-3M melanoma = test system: MALME-3M melanoma
SK-MEL-28 melanoma = test system: SK-MEL-28 melanoma
BT-549 breast = test system: BT-549 breast
HOP-92 NSCLC = test system: HOP-92 NSCLC
HS 578T breast = test system: HS 578T breast
HT29 colon = test system: HT29 colon
SNB-75 CNS = test system: SNB-75 CNS
K-562 leukemia = test system: K-562 leukemia

SMILES: CNC(=O)c1cc(-c2ccc(NC(=O)Nc3ccc(N4CCN(C)CC4)c(C(F)(F)F)c3)cc2)nc2cccnc12
- GI50 (HL-60(TB) leukemia): 16.1 µM
- TGI (HL-60(TB) leukemia): 38.7 µM
- GI50 (MDA-MB-435): 1750 nM
- TGI (MDA-MB-435): 3.27 µM
- GI50 (RXF 393 renal): 3.38 µM
- TGI (RXF 393 renal): 15 µM
- GI50 (SF-539 CNS): 13.6 µM
- TGI (SF-539 CNS): 26.5 µM
- GI50 (SW-620 colon): 2110 nM
- TGI (SW-620 colon): 4.62 µM
- GI50 (SF-295 CNS): 18 µM
- TGI (SF-295 CNS): 36.9 µM
- GI50 (UACC-257 melanoma): 15.3 µM
- TGI (UACC-257 melanoma): 28.8 µM
- GI50 (NCI-H226 lung): 18 µM
- TGI (NCI-H226 lung): 39.7 µM
- GI50 (OVCAR-3 ovarian): 9.59 µM
- TGI (OVCAR-3 ovarian): 25.8 µM
- GI50 (NCI/ADR-RES ovarian): 14.2 µM
- TGI (NCI/ADR-RES ovarian): 45.4 µM
- GI50 (HCT-15 colon): 2070 nM
- TGI (HCT-15 colon): 4.33 µM
- GI50 (EKVX NSCLC): 17.9 µM
- TGI (EKVX NSCLC): 33.9 µM
- GI50 (SK-OV-3 ovarian): 18.5 µM
- TGI (SK-OV-3 ovarian): 34.7 µM
- GI50 (DU-145 prostate): 17.6 µM
- TGI (DU-145 prostate): 35.6 µM
- GI50 (SK-MEL-2 melanoma): > 100 µM
- TGI (SK-MEL-2 melanoma): > 100 µM
- GI50 (SF-268 CNS): 17.5 µM
- TGI (SF-268 CNS): 39.2 µM
- GI50 (OVCAR-5 ovarian): 15.6 µM
- TGI (OVCAR-5 ovarian): 29 µM
- GI50 (MOLT-4 leukemia): 2790 nM
- TGI (MOLT-4 leukemia): 14.9 µM
- GI50 (TK-10 renal): 18.5 µM
- TGI (TK-10 renal): 33.3 µM
- GI50 (OVCAR-4 ovarian): 15.7 µM
- TGI (OVCAR-4 ovarian): 31.6 µM
- GI50 (UO-31 renal): 15.3 µM
- TGI (UO-31 renal): 29.2 µM
- GI50 (U251 CNS): 3.43 µM
- TGI (U251 CNS): 14.7 µM
- GI50 (HCT-116 colon): 4.09 µM
- TGI (HCT-116 colon): 75.6 µM
- GI50 (SN12C renal): 16.7 µM
- TGI (SN12C renal): 34.7 µM
- GI50 (OVCAR-8 ovarian): 17.4 µM
- TGI (OVCAR-8 ovarian): 35.4 µM
- GI50 (NCI-H522 lung): 16.5 µM
- TGI (NCI-H522 lung): 31.1 µM
- GI50 (A549 NSCLC): 10.9 µM
- TGI (A549 NSCLC): 24.3 µM
- GI50 (PC-3 prostate): 15.1 µM
- TGI (PC-3 prostate): 30.1 µM
- GI50 (SK-MEL-5 melanoma): 17.5 µM
- TGI (SK-MEL-5 melanoma): 31.7 µM
- GI50 (HCC-2998 colon): 18 µM
- TGI (HCC-2998 colon): 34.6 µM
- GI50 (CCRF-CEM leukemia): 3.16 µM
- TGI (CCRF-CEM leukemia): 74.2 µM
- GI50 (MCF7 breast): 1670 nM
- TGI (MCF7 breast): 3.45 µM
- GI50 (A498 renal): > 100 µM
- TGI (A498 renal): > 100 µM
- GI50 (LOX IMVI melanoma): 656 nM
- TGI (LOX IMVI melanoma): 24.5 µM
- GI50 (KM12 colon): 17.4 µM
- TGI (KM12 colon): 43.3 µM
- GI50 (HOP-62 NSCLC): 16.4 µM
- TGI (HOP-62 NSCLC): 32.2 µM
- GI50 (ACHN renal): 15.5 µM
- TGI (ACHN renal): 28.9 µM
- GI50 (T-47D breast): 17 µM
- TGI (T-47D breast): 43.4 µM
- GI50 (CAKI-1 renal): 16.1 µM
- TGI (CAKI-1 renal): 29.6 µM
- GI50 (NCI-H460 lung): 3.19 µM
- TGI (NCI-H460 lung): 10.2 µM
- GI50 (UACC-62 melanoma): 18.4 µM
- TGI (UACC-62 melanoma): 33.9 µM
- GI50 (SR leukemia): 9.97 µM
- TGI (SR leukemia): 44.6 µM
- GI50 (786-0 renal): 1810 nM
- TGI (786-0 renal): 3.52 µM
- GI50 (IGROV1 ovarian): 17.7 µM
- TGI (IGROV1 ovarian): 36.6 µM
- GI50 (RPMI-8226 leukemia): 3.85 µM
- TGI (RPMI-8226 leukemia): 25 µM
- GI50 (M14 melanoma): 1790 nM
- TGI (M14 melanoma): 3.71 µM
- GI50 (SNB-19 CNS): 16.9 µM
- TGI (SNB-19 CNS): 33.2 µM
- GI50 (COLO 205 colon): 16.8 µM
- TGI (COLO 205 colon): 32.8 µM
- GI50 (MDA-MB-231 breast): 17.5 µM
- TGI (MDA-MB-231 breast): 38.1 µM
- GI50 (MALME-3M melanoma): 1680 nM
- TGI (MALME-3M melanoma): 3.21 µM
- GI50 (SK-MEL-28 melanoma): 1670 nM
- TGI (SK-MEL-28 melanoma): 3.11 µM
- GI50 (BT-549 breast): 16.5 µM
- TGI (BT-549 breast): 35.3 µM
- GI50 (HOP-92 NSCLC): 6.54 µM
- TGI (HOP-92 NSCLC): > 100 µM
- GI50 (HS 578T breast): 15 µM
- TGI (HS 578T breast): 38.9 µM
- GI50 (HT29 colon): 1920 nM
- TGI (HT29 colon): 4.19 µM
- GI50 (SNB-75 CNS): 14.9 µM
- TGI (SNB-75 CNS): 28.4 µM
- GI50 (K-562 leukemia): 2120 nM
- TGI (K-562 leukemia): 5.35 µM
